How the values were obtained:
[1] = refractive index (Na D-line) (dimensionless); conditions: 101.33 kPa, Liquid, Standard Abbe refractometry
[2] = Liquid; for electrical conductivity: Alternating current cell with electrodes; for viscosity: Capillary tube (Ostwald / Ubbelohde) method; for speed of sound: Linear variable-path acoustic interferometer; for mass density: Vibrating tube method

CC(=O)[O-].CCCCn1cc[n+](C)c1 [1-butyl-3-methylimidazolium acetate]
[1]
Conditions	refractive index
283.15 K	1.49925
288.15 K	1.49781
293.15 K	1.49634
298.15 K	1.49488
303.15 K	1.49342
308.15 K	1.49197
313.15 K	1.49053
318.15 K	1.48909
323.15 K	1.48765
328.15 K	1.48619
333.15 K	1.48477
338.15 K	1.48332
343.15 K	1.48189

[2], 101.33 kPa
Conditions	electrical conductivity [S/m]	mass density [kg/m3]	speed of sound [m/s]	viscosity [mPa·s]
283.15 K	0.0131	1061.85	1700	1927
288.15 K	0.0215	1058.77	1683	1165
293.15 K	0.0331	1055.69	1666	736.6
298.15 K	0.049	1052.63	1650	485.1
303.15 K	0.0699	1049.61	1635	330.9
308.15 K	0.0968	1046.6	1621	233
313.15 K	0.131	1043.59	1608	168.7
318.15 K	0.172	1040.59	1595	125.2
323.15 K	0.221	1037.58	1582	95.05
328.15 K	–	1034.58	1570	73.63
333.15 K	–	1031.59	1558	58.09
338.15 K	–	1028.61	1546	46.57
343.15 K	–	1025.64	1534	37.91

O=c1cc[nH]c(=O)[nH]1 [2,4(1H,3H)-pyrimidinedione]
[2], 101 kPa
Conditions	electrical conductivity [S/m]	mass density [kg/m3]	viscosity [mPa·s]
298.15 K	0.296	1097.6	128.5
303.15 K	0.382	1094.5	95.23
308.15 K	0.48	1091.4	72.42
313.15 K	0.594	1088.4	56.38
318.15 K	0.827	1085.3	44.79
323.15 K	0.986	1082.3	36.23
328.15 K	–	1079.3	29.78
333.15 K	–	1076.2	24.82
338.15 K	–	1073.3	20.95
343.15 K	–	1070.3	17.88
